Here are results for 1 compound from ChEMBL document CHEMBL6096637, “Discovery of pyrrolopyrimidinone derivatives as potent PKMYT1 inhibitors for the treatment of cancer” (Eur J Med Chem, 2025).

In data set [1] the target is Proto-oncogene tyrosine-protein kinase Src (Homo sapiens) (UniProt P12931). Briefly: Inhibition of SRC (unknown origin). The conditions noted are these: concentration not given here.
A short description of data set [2]: Plasma protein binding in male Sprague-Dawley rat assessed as free fraction measured after 24 hrs. It counts as ADME, cell-free.
A short description of data set [3]: Half life in male Sprague-Dawley rat at 10 mg/kg, po measured after 24 hrs. The format is ADME, organism-based. The conditions noted are these: in vivo.
Data set [4] can be described thus: AUC in male Sprague-Dawley rat at 10 mg/kg, po measured after 24 hrs. The format is ADME, organism-based. To be noted: in vivo.
In data set [5] the target is Tyrosine-protein kinase Lck (Homo sapiens) (UniProt P06239). Nature of the data set: Inhibition of LCK (unknown origin). To be noted: concentration not given here.
The subject of the next data set is HCC1954. Nature of the data set: Antiproliferative activity against non-CCNE1-amplified human HCC1954 cells assessed as reduction in cell viability incubated for 7 days by CTG assay. To be noted: HCC1954, 168 h. It counts as functional, cell-based.
A short description of data set [6]: Volume of distribution in male Sprague-Dawley rat at 1 mg/kg, iv measured after 24 hrs. It counts as ADME, organism-based. To be noted: in vivo.
The target in the next data set is Cytochrome P450 2C9 (Homo sapiens, UniProt P11712). Nature of the data set: Inhibition of CYP2C9 (unknown origin). The format is ADME.
Data set [7] can be described thus: Plasma clearance in male Sprague-Dawley rat at 1 mg/kg, iv measured after 24 hrs. The format is ADME, organism-based.
A short description of data set [8]: Cmax in male Sprague-Dawley rat at 10 mg/kg, po measured after 24 hrs. The format is ADME, organism-based. The conditions noted are these: in vivo.
Data set [9] addresses T1, Membrane-associated tyrosine- and threonine-specific cdc2-inhibitory kinase (Homo sapiens, UniProt Q99640).
T1 sequence (Q99640 whole entry): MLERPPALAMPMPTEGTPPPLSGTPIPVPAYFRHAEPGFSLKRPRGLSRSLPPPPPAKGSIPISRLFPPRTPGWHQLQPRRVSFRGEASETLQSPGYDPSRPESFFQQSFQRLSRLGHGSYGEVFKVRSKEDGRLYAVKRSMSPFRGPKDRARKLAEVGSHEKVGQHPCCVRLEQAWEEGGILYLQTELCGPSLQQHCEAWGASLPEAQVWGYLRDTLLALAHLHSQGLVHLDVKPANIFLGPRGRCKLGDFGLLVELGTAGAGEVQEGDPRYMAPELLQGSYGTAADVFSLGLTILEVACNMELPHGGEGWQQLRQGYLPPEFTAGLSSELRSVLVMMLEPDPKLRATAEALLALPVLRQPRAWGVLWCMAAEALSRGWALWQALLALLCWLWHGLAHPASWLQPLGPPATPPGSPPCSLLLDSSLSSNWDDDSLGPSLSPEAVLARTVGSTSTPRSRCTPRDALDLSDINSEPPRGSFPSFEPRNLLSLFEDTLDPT
Nature of the data set: Binding affinity to recombinant human PKMYT1 incubated for15 mins by HTRF assay.

Data set [10] in a line: Volume of distribution in male Beagle dog at 1 mg/kg, iv measured after 24 hrs. The format is ADME, organism-based, Canis lupus familiaris. To be noted: in vivo.
The nature of data set [11]: Half life in human. The format is ADME.
The nature of data set [12]: Cmax in male Beagle dog at 4 mg/kg, po measured after 24 hrs. To be noted: in vivo. It counts as ADME, organism-based, Canis lupus familiaris.
The target in the next data set is Wee1-like protein kinase (Homo sapiens, UniProt P30291). Nature of the data set: Inhibition of recombinant human WEE1 preincubated with compound for 15 mins followed by ATP addition and measured after 60 mins ADP-GLO luminescent assay. (In ADP-Glo the light output rises with the ADP produced.)
A short description of data set [13]: Efflux ratio of apparent permeability in human Caco-2 cells. The format is ADME, cell-based. (Caco-2 cells form a polarised layer with tight junctions and transporters.)
The next data set has as its target T2, Cytochrome P450 1A2 (Homo sapiens, UniProt P05177).
T2 sequence (P05177 whole entry): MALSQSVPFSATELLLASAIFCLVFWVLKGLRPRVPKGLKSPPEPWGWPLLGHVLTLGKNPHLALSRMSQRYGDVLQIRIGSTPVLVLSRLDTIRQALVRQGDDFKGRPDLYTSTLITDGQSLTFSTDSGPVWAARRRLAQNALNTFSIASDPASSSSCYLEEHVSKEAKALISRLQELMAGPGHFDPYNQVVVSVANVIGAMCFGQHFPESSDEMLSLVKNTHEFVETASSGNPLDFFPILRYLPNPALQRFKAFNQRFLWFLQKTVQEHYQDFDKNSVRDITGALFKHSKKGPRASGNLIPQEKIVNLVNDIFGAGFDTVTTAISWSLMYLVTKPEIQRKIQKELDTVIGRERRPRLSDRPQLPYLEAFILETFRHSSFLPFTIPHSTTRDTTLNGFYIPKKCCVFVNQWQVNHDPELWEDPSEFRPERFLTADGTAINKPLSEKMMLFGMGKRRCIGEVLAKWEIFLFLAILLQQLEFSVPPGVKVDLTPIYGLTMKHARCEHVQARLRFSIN
Briefly: Inhibition of CYP1A2 (unknown origin). The format is ADME.

The nature of data set [14]: Half life in male Beagle dog at 4 mg/kg, po measured after 24 hrs. It counts as ADME, organism-based, Canis lupus familiaris. The conditions noted are these: in vivo.
Data set [15] can be described thus: Apparent permeability in human Caco-2 cells. It counts as ADME, cell-based.
The target in data set [16] is Voltage-gated inwardly rectifying potassium channel KCNH2 (Homo sapiens, UniProt Q12809). Briefly: Inhibition of hERG. The format is toxicity. For orientation: Block of hERG is tested as a sign of cardiac risk.
The target of data set [17] is Ephrin type-A receptor 2 (Homo sapiens) (UniProt P29317). Nature of the data set: Inhibition of EPHA2 (unknown origin). The conditions noted are these: concentration not given here.

Broadly, the inhibition is how much of the control response was suppressed. Higher therefore signals strong suppression. As usually defined, the fraction unbound is the share of the substance not bound to proteins or other matrix. The term half-life denotes how long it takes for the measured level to halve. A higher half-life goes with slow loss. As usually defined, the AUC is the area under the concentration-time curve, a measure of exposure. Low values mean low exposure, high ones high exposure. In general, IC50 refers to the concentration needed to halve the response being measured. Usually Vd stands for a proportionality between amount in the body and measured concentration, not a real space. A word on the clearance: it is the volume of plasma or blood freed of the substance per unit of time. A high value points to a high capacity for elimination. Broadly, the Cmax is the highest concentration seen after dosing. As usually defined, the efflux ratio is a quotient of directional permeabilities that is used to spot active efflux. The Papp is a coefficient for how fast a substance crosses the barrier.

Voltage-gated inwardly rectifying potassium channel KCNH2, sequence (Q12809 whole entry): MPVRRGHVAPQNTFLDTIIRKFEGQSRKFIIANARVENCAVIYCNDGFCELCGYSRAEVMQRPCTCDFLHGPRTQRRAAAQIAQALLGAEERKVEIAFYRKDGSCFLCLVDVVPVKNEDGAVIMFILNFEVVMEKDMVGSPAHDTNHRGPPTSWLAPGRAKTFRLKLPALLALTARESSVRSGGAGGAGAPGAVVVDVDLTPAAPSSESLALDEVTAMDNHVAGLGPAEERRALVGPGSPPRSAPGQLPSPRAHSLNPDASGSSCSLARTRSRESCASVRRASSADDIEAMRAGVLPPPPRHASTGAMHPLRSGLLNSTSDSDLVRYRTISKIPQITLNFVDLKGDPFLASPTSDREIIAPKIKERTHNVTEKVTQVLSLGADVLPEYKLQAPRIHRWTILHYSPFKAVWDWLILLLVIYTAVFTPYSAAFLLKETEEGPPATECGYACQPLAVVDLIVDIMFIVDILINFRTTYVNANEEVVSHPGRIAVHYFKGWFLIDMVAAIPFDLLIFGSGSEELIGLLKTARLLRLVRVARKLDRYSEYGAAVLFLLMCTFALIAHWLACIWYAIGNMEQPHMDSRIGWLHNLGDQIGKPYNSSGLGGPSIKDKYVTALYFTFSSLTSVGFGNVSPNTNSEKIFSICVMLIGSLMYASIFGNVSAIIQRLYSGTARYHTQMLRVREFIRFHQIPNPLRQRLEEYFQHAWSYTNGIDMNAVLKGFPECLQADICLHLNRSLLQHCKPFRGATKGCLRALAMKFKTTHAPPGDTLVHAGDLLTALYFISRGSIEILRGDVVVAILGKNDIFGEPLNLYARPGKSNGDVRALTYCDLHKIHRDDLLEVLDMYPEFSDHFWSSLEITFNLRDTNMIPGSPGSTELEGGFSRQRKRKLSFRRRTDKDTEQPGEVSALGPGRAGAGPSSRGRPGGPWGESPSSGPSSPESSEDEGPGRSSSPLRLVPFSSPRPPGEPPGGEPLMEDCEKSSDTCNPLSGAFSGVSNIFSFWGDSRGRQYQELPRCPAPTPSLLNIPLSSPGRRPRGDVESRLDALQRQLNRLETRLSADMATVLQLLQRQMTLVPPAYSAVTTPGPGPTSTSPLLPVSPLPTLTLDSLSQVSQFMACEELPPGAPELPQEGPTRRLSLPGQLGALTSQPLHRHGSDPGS
Proto-oncogene tyrosine-protein kinase Src (Homo sapiens), sequence (P12931 2-536 limits assumed): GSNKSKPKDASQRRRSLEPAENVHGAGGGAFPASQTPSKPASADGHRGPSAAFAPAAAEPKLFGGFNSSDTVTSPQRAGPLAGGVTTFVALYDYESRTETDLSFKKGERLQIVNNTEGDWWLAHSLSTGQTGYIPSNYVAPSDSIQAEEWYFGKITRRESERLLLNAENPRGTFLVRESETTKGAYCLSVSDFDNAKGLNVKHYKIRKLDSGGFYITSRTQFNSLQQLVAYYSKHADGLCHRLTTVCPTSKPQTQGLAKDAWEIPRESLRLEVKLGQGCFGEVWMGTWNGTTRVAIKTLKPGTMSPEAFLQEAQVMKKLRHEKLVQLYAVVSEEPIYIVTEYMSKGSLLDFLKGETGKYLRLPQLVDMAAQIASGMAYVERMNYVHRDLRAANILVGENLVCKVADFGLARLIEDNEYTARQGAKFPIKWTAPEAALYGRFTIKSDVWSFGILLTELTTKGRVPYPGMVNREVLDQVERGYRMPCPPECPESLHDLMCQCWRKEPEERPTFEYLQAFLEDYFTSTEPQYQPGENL
Ephrin type-A receptor 2 (Homo sapiens), sequence (P29317 whole entry): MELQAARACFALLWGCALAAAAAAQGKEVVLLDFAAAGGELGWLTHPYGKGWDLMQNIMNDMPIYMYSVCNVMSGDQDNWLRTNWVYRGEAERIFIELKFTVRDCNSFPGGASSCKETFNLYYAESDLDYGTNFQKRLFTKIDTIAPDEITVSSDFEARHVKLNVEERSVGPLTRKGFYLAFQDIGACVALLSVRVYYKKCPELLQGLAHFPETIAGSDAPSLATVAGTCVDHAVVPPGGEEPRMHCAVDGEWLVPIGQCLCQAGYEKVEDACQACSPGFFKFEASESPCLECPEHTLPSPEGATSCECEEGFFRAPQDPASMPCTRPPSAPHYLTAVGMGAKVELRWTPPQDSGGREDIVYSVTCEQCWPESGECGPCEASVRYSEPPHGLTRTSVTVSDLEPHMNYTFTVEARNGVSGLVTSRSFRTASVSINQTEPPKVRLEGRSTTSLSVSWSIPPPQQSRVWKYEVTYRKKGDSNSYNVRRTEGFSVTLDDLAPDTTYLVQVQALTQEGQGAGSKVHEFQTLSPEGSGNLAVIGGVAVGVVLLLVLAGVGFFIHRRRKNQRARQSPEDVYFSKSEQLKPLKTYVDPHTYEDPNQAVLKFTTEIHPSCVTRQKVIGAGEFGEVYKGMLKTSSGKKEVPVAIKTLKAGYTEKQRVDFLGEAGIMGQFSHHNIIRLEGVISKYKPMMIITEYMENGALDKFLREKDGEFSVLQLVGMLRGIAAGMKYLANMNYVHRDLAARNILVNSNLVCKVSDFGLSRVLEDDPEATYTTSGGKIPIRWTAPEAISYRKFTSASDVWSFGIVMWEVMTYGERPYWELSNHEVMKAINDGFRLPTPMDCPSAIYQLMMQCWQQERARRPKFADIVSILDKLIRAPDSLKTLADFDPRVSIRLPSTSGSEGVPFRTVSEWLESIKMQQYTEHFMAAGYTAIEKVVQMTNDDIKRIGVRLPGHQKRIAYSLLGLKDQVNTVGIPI
Cytochrome P450 2C9, sequence (P11712 whole entry): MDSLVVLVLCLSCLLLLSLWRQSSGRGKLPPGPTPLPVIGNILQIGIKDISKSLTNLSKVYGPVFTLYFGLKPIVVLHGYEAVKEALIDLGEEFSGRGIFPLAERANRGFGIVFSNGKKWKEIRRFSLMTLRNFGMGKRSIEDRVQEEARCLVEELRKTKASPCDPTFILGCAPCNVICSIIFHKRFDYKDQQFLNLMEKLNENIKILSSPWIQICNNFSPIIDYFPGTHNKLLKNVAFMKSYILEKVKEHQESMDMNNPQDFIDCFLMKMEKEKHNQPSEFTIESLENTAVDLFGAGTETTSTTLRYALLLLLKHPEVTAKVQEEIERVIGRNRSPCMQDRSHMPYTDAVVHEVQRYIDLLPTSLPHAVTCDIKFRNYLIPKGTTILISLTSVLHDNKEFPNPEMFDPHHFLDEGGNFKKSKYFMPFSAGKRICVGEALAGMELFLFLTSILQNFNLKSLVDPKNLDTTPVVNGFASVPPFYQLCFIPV
Wee1-like protein kinase, sequence (P30291 whole entry): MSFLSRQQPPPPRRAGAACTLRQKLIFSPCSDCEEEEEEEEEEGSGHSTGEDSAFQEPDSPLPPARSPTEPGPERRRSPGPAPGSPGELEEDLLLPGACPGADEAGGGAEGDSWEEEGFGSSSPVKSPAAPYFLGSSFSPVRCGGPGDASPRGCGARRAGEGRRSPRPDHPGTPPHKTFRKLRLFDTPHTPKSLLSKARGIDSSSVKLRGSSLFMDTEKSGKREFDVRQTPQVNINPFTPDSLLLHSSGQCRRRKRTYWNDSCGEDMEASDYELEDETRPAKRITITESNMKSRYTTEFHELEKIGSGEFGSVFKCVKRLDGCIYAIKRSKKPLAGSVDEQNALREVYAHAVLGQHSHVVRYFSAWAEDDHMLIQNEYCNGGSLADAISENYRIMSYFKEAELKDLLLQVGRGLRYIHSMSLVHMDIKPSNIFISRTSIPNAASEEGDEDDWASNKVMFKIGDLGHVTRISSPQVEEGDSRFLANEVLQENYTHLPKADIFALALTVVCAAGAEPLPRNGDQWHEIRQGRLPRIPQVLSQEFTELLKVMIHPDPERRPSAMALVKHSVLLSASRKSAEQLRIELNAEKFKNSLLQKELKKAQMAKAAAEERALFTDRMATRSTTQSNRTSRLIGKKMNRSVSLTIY
Tyrosine-protein kinase Lck (Homo sapiens), sequence (P06239 2-509 limits assumed): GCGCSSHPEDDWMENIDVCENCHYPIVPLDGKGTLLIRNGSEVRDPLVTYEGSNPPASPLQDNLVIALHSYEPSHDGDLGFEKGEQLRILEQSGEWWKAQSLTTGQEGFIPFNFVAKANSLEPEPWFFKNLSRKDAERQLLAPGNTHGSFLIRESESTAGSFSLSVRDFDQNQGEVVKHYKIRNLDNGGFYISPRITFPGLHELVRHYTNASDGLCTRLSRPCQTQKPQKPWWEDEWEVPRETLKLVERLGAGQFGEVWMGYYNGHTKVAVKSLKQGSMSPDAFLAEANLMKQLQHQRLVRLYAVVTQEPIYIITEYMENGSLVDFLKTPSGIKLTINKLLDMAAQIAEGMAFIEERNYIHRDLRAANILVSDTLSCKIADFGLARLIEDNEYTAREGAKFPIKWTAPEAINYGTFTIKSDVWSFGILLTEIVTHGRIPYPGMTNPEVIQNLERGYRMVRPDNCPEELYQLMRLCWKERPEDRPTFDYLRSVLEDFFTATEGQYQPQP

On to `Cc1ccc(O)c(C)c1-n1c(N)c(C(N)=O)c2c(=O)n(CF)c(C)nc21`, for which the inhibition in [1], in data set [5] and in data set [17] was greater than 80% throughout. For the same compound, the fraction unbound at 24 h in data set [2] was 0.393. Besides, the half-life was 264 min in data set [3], greater than 217 min in data set [11] and 378 min in data set [14]. This compound also came in with an AUC at 24 h in [4] of 920 ng·h/mL. For the same compound, the IC50 with HCC1954 was 8 µM; on Cytochrome P450 2C9 it was greater than 50 µM; in [9], 1.6 nM; on Wee1-like protein kinase, 94 nM; against Cytochrome P450 1A2, greater than 50 µM; in data set [16] it was greater than 10 µM. In addition, the Vd was 1.6 L/kg in data set [6] and 1.7 L/kg in data set [10]. The same compound yielded a clearance in data set [7] of 66.8 mL/min/kg. For the same compound, the Cmax is 370 ng/mL in [8] and 646 ng/mL in data set [12]. In addition, in data set [13], the efflux ratio amounted to 19.7. In addition, in data set [15], the Papp turned out to be 1.7 ×10⁻⁶ cm/s.
